Assay results taken from the kinase profiling compilation of Christmann-Franck et al. (2016).
Values joined by “and” are separate entries in the source; they are usually repeats but may differ in a detail not shown here. Equal entries are not always repeated.

How the values were obtained:
Assay in all cases: KINOMEscan competition binding
Details in all cases: compound 10.0 µM
ACVR2B (human) = ACVR2B (human) (UniProt Q13705)
AURKB (human) = AURKB (human) (UniProt Q96GD4)
BMPR1A (human) = BMPR1A (human) (UniProt P36894)
CDKL2 (human) = CDKL2 (human) (UniProt Q92772)
CHEK1 (human) = CHEK1 (human) (UniProt O14757)
CIT (human) = CIT (human) (UniProt O14578)
CSNK1D (human) = CSNK1D (human) (UniProt P48730)
CSNK2A1 (human) = CSNK2A1 (human) (UniProt P68400)
CaMK1 (human) = CaMK1 (human) (UniProt Q14012)
DCLK2 (human) = DCLK2 (human) (UniProt Q8N568)
EPHB2 (human) = EPHB2 (human) (UniProt P29323)
ERBB4 (human) = ERBB4 (human) (UniProt Q15303)
FLT3 (human) = FLT3 (human) (UniProt P36888)
FRK (human) = FRK (human) (UniProt P42685)
LATS1 (human) = LATS1 (human) (UniProt O95835)
LATS2 (human) = LATS2 (human) (UniProt Q9NRM7)
MAP3K1 (human) = MAP3K1 (human) (UniProt Q13233)
MAP3K5 (human) = MAP3K5 (human) (UniProt Q99683)
MAP4K4 (human) = MAP4K4 (human) (UniProt O95819)
MAPKAPK5 (human) = MAPKAPK5 (human) (UniProt Q8IW41)
[1] = tested on: MET (human), P08581 [Y1235D]
MYLK (human) = MYLK (human) (UniProt Q15746)
NEK3 (human) = NEK3 (human) (UniProt P51956)
PDGFRA (human) = PDGFRA (human) (UniProt P16234)
PIM2 (human) = PIM2 (human) (UniProt Q9P1W9)
PKN2 (human) = PKN2 (human) (UniProt Q16513)
PLK3 (human) = PLK3 (human) (UniProt Q9H4B4)
PRKAA1 (human) = PRKAA1 (human) (UniProt Q13131)
PRPF4B (human) = PRPF4B (human) (UniProt Q13523)
RPS6KA6 KD2 (human) = RPS6KA6 KD2 (human) (UniProt Q9UK32)
SGK110 (human) = SGK110 (human) (UniProt P0C264)
SRMS (human) = SRMS (human) (UniProt Q9H3Y6)
SRPK3 (human) = SRPK3 (human) (UniProt Q9UPE1)
STK17B (human) = STK17B (human) (UniProt O94768)
STK33 (human) = STK33 (human) (UniProt Q9BYT3)
STK39 (human) = STK39 (human) (UniProt Q9UEW8)
SYK (human) = SYK (human) (UniProt P43405)
TGFBR2 (human) = TGFBR2 (human) (UniProt P37173)
TTK (human) = TTK (human) (UniProt P33981)
[2] = molecular target: TYK2 JH2 pseudokinase (human) (UniProt P29597)

FRK (human), sequence (P42685 whole entry, looked up): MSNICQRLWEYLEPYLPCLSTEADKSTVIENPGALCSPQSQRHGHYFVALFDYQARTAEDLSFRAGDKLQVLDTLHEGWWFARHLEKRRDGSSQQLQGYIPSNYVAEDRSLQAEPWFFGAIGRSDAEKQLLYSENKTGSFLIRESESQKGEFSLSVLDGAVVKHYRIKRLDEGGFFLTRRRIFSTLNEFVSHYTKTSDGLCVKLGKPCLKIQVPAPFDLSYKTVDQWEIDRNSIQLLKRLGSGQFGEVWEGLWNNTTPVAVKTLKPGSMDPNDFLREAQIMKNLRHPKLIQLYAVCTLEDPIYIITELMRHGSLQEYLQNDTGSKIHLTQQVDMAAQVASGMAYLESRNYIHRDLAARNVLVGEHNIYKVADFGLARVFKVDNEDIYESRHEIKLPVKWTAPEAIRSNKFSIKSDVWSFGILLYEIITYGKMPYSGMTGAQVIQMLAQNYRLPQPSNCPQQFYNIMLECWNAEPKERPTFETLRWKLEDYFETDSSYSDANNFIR
ERBB4 (human), sequence (Q15303 whole entry, looked up): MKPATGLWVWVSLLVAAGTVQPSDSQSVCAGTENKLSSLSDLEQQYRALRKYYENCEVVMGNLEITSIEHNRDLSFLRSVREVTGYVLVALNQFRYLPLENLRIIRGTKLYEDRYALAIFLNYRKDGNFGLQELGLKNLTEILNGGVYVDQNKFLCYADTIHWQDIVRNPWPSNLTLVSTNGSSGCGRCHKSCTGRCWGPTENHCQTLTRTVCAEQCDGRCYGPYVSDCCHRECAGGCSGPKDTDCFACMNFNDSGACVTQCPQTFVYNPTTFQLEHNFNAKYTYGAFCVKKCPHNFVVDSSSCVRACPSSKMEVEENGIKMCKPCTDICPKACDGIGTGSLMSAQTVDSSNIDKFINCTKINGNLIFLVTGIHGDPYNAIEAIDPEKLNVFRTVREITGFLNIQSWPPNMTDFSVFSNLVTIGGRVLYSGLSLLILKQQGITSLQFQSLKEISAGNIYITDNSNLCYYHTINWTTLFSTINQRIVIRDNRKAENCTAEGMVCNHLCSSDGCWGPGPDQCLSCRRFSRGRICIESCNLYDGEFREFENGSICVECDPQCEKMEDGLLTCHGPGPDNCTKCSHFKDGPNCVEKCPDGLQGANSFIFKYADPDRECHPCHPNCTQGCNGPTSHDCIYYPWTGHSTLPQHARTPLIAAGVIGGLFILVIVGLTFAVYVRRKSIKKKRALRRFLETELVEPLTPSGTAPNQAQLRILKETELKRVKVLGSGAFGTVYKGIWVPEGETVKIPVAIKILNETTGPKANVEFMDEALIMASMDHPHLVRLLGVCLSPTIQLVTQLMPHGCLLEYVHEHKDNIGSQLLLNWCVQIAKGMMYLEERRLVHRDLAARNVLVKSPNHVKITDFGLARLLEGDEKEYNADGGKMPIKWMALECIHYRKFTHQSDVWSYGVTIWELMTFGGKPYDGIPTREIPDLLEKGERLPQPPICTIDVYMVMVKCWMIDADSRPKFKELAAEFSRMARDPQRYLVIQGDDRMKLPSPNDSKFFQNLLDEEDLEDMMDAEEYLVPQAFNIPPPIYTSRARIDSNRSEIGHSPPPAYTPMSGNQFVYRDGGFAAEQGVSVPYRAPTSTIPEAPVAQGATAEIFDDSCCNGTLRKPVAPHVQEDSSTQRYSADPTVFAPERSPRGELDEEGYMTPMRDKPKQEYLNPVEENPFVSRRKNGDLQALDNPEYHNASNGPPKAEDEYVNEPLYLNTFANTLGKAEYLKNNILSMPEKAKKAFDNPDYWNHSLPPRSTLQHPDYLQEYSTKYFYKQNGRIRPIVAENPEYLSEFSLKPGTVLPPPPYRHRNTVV
MAP3K5 (human), sequence (Q99683 whole entry, looked up): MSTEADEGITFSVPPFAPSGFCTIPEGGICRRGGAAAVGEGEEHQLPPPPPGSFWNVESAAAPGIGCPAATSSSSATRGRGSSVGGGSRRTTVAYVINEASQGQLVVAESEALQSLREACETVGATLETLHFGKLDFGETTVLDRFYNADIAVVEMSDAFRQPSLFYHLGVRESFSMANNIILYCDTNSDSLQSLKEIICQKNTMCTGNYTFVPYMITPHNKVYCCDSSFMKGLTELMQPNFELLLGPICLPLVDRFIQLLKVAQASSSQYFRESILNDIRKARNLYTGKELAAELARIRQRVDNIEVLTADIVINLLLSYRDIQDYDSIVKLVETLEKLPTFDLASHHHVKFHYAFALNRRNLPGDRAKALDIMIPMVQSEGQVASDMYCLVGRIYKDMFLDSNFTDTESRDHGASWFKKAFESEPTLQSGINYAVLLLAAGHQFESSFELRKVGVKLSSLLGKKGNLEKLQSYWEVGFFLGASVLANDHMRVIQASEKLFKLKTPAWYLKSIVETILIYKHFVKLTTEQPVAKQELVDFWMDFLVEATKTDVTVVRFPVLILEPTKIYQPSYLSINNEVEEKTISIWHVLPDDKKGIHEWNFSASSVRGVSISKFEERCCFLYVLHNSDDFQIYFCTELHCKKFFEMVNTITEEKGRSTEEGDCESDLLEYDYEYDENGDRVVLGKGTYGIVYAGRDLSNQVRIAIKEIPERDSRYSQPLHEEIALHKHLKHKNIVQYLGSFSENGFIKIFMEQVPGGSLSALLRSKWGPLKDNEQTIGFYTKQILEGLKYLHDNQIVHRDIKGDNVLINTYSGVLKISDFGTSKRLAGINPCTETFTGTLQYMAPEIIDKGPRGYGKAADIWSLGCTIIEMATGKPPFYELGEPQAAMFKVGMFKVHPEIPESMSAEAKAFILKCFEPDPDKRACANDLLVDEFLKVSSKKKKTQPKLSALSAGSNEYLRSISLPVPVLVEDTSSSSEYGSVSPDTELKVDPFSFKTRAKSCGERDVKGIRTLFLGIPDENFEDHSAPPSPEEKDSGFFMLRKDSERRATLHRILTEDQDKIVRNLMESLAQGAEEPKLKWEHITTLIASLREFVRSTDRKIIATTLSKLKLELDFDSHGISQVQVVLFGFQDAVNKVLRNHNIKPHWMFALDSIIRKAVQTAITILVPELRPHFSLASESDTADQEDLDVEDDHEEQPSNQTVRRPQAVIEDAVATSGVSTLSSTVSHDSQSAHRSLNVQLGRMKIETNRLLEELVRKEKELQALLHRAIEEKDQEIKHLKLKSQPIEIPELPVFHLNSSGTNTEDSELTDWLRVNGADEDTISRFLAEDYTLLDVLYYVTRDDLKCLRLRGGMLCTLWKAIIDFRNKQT
MYLK (human), sequence (Q15746 whole entry, looked up): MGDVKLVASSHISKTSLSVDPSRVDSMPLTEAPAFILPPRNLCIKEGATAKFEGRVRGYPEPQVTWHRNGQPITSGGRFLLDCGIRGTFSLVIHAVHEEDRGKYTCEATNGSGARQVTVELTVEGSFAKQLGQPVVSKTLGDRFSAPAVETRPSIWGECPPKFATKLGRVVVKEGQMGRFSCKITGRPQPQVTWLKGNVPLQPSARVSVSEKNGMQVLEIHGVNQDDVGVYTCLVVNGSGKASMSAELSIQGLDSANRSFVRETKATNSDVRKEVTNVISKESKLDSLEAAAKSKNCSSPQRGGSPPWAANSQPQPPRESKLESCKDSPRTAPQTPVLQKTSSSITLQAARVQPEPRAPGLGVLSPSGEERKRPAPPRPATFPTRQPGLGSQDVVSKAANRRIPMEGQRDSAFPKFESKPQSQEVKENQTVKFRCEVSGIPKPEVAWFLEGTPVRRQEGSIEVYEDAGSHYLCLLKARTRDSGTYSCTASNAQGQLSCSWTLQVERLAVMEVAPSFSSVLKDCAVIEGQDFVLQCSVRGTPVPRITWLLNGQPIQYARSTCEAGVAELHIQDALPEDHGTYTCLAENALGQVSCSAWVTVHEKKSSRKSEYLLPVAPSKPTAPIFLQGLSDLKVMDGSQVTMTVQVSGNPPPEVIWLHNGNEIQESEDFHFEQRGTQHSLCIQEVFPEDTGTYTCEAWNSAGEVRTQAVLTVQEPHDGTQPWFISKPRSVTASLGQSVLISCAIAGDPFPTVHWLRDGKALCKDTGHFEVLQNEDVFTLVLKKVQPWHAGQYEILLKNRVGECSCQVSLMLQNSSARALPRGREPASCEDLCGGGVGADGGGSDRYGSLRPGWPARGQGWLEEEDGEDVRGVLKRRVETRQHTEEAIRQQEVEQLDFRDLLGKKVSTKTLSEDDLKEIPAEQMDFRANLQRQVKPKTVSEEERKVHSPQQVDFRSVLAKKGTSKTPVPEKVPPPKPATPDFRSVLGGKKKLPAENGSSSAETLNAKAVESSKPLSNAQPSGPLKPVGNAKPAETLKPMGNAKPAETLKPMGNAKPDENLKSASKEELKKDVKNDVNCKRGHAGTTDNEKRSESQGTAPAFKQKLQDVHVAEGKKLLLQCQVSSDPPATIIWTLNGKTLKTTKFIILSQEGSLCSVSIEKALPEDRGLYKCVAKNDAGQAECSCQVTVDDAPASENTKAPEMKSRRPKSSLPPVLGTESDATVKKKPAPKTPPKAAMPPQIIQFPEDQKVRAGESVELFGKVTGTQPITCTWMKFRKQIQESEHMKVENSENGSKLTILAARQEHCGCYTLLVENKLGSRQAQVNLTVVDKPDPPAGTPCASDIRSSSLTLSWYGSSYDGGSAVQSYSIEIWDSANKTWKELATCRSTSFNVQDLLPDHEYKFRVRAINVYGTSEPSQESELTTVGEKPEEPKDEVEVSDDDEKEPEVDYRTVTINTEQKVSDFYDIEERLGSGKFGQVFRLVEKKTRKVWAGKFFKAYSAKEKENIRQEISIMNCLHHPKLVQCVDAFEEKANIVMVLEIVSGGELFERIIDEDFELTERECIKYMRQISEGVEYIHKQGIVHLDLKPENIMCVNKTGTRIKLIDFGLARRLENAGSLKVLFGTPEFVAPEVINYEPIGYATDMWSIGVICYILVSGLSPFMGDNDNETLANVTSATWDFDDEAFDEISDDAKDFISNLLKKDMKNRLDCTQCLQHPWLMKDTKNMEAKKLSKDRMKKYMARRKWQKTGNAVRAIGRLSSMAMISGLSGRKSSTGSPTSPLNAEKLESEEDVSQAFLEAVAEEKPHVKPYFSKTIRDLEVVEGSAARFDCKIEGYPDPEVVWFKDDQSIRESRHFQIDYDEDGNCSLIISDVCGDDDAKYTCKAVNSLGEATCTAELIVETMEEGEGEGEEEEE

Compound | kinase still bound, per cent of control (ACVR2B (human)) [%] | kinase still bound, per cent of control (AURKB (human)) [%] | kinase still bound, per cent of control (BMPR1A (human)) [%] | kinase still bound, per cent of control (CDKL2 (human)) [%] | kinase still bound, per cent of control (CHEK1 (human)) [%] | kinase still bound, per cent of control (CIT (human)) [%] | kinase still bound, per cent of control (CSNK1D (human)) [%] | kinase still bound, per cent of control (CSNK2A1 (human)) [%] | kinase still bound, per cent of control (CaMK1 (human)) [%] | kinase still bound, per cent of control (DCLK2 (human)) [%] | kinase still bound, per cent of control (EPHB2 (human)) [%] | kinase still bound, per cent of control (ERBB4 (human)) [%] | kinase still bound, per cent of control (FLT3 (human)) | kinase still bound, per cent of control (FRK (human)) [%] | kinase still bound, per cent of control (LATS1 (human)) [%] | kinase still bound, per cent of control (LATS2 (human)) [%] | kinase still bound, per cent of control (MAP3K1 (human)) [%] | kinase still bound, per cent of control (MAP3K5 (human)) [%] | kinase still bound, per cent of control (MAP4K4 (human)) | kinase still bound, per cent of control (MAPKAPK5 (human)) [%] | further results
O=C1NC(=O)/C(=C/c2ccc3nccc(-c4ccncc4)c3c2)S1 | 20 | 39 | 2 | 64 | 57 | 4.4 | 3.6 | 7.9 | 65 | 91 | 86 | 65 | 39% and 61% | 81 | 80 | 100 | 60 | 58 | 41% and 47% | 0.2 | kinase still bound, per cent of control [1]: 94%; kinase still bound, per cent of control (MYLK (human)): 19%; kinase still bound, per cent of control (NEK3 (human)): 77%; kinase still bound, per cent of control (PDGFRA (human)): 67%; kinase still bound, per cent of control (PIM2 (human)): 1%; kinase still bound, per cent of control (PKN2 (human)): 31%; kinase still bound, per cent of control (PLK3 (human)): 49%; kinase still bound, per cent of control (PRKAA1 (human)): 88%; kinase still bound, per cent of control (PRPF4B (human)): 88%; kinase still bound, per cent of control (RPS6KA6 KD2 (human)): 5.2%; kinase still bound, per cent of control (SGK110 (human)): 100%; kinase still bound, per cent of control (SRMS (human)): 67%; kinase still bound, per cent of control (SRPK3 (human)): 31%; kinase still bound, per cent of control (STK17B (human)): 0.6%; kinase still bound, per cent of control (STK33 (human)): 0.55%; kinase still bound, per cent of control (STK39 (human)): 71%; kinase still bound, per cent of control (SYK (human)): 62%; kinase still bound, per cent of control (TGFBR2 (human)): 73%; kinase still bound, per cent of control (TTK (human)): 19%; kinase still bound, per cent of control [2]: 51%
COc1cc2ncnc(-n3nc(-c4ccccn4)nc3N)c2cc1OC | 49 | 0.4 | 0.3 | 2 | 100 | 30 | 2.8 | 4.4 | 31 | 88 | 47 | 59 | 20% | 19 | 100 | 11 | 66 | 100 | 69% | 100 | kinase still bound, per cent of control [1]: 40%; kinase still bound, per cent of control (MYLK (human)): 0.8%; kinase still bound, per cent of control (NEK3 (human)): 87%; kinase still bound, per cent of control (PDGFRA (human)): 57%; kinase still bound, per cent of control (PIM2 (human)): 78%; kinase still bound, per cent of control (PKN2 (human)): 79%; kinase still bound, per cent of control (PLK3 (human)): 33%; kinase still bound, per cent of control (PRKAA1 (human)): 19%; kinase still bound, per cent of control (PRPF4B (human)): 93%; kinase still bound, per cent of control (RPS6KA6 KD2 (human)): 6.2%; kinase still bound, per cent of control (SGK110 (human)): 100%; kinase still bound, per cent of control (SRMS (human)): 27%; kinase still bound, per cent of control (SRPK3 (human)): 38%; kinase still bound, per cent of control (STK17B (human)): 9.4%; kinase still bound, per cent of control (STK33 (human)): 6.4%; kinase still bound, per cent of control (STK39 (human)): 80%; kinase still bound, per cent of control (SYK (human)): 24%; kinase still bound, per cent of control (TGFBR2 (human)): 9%; kinase still bound, per cent of control (TTK (human)): 20%; kinase still bound, per cent of control [2]: 0%
COc1cc(C(=O)N2CCC(N3CCN(C)CC3)CC2)ccc1Nc1ncc2c(n1)N(C)c1ccccc1C(=O)N2C | 100 | 38 | 76 | 100 | 100 | 99 | 81 | 100 | 55 | 0.45 | 100 | 100 | 100% | 34 | 100 | 95 | 95 | 100 | 85% | 97 | kinase still bound, per cent of control [1]: 100%; kinase still bound, per cent of control (MYLK (human)): 8.7%; kinase still bound, per cent of control (NEK3 (human)): 100%; kinase still bound, per cent of control (PDGFRA (human)): 100%; kinase still bound, per cent of control (PIM2 (human)): 100%; kinase still bound, per cent of control (PKN2 (human)): 95%; kinase still bound, per cent of control (PLK3 (human)): 51%; kinase still bound, per cent of control (PRKAA1 (human)): 51%; kinase still bound, per cent of control (PRPF4B (human)): 93%; kinase still bound, per cent of control (RPS6KA6 KD2 (human)): 2.2%; kinase still bound, per cent of control (SGK110 (human)): 62%; kinase still bound, per cent of control (SRMS (human)): 77%; kinase still bound, per cent of control (SRPK3 (human)): 72%; kinase still bound, per cent of control (STK17B (human)): 93%; kinase still bound, per cent of control (STK33 (human)): 10%; kinase still bound, per cent of control (STK39 (human)): 39%; kinase still bound, per cent of control (SYK (human)): 100%; kinase still bound, per cent of control (TGFBR2 (human)): 100%; kinase still bound, per cent of control (TTK (human)): 28%; kinase still bound, per cent of control [2]: 100%
